SMILES strings stand for the structures.

The term IC50 denotes the concentration that inhibits the measured activity by half. Low values mean inhibition by little substance, high ones a need for much substance.

This assay addresses T1, HIV-1 protease wild type protein (Human immunodeficiency virus type 1 group M subtype B, UniProt P04585).
T1 construct: HIV-1 protease wild type protein; purchased AscoProt Biotech, Prague, Czech Republic
Description: Biochemical protease assay. The procedure:
For the determination of their in vitro activity on HIV proteases the test substances are dissolved in DMSO and serially diluted. In each case 0.5 μl of substance dilution, 20 μl of 0.2-1 nM HIV-1 protease wild type or mutant protein (e.g., multiresistant isolate “35513”: L10I, I15V, L19I, K20R, E35D, M36I, R41K, I54V, L63P, H69K, A71V, T74P, I84V, L89M, L90M, 193L, AscoProt Biotech, Prague, Czech Republic) in buffer 1 (50 mM sodium acetate pH 4.9, 0.02% BSA, 0.1 mM EDTA, 0.5 mM DTT) and 20 μl of 8 μM substrate (M1865 from Bachem, Bubendorf, Switzerland; Matayoshi et al., Science 1990, 247, 954-8) in buffer 1 are added successively to a 384 well microtiter plate (Greiner, Frickenhausen, Germany), incubated for 60-180 minutes at 32° C. and the fluorescence is measured (e.g., Tecan Safire, 340 nm extinction, 520 nm emission). IC50 values are determined by graphical plotting the substance concentration against the percentage inhibition.

Consider `Cc1cc(-c2cccc(N(C)S(C)(=O)=O)c2)c(Cl)cc1C1=C(O)C2(CCCCC2)OC1=O` [Example 185, N-[2′-Chloro-4′-(4-hydroxy-2-oxo-1-oxaspiro[4.5]dec-3-en-3-yl)-5′-methylbiphenyl-3-yl]-N-methylmethanesulfonamide], for which the IC50 was ≤ 100 nM.

For `Cc1cc(-c2cccc(S(C)(=O)=O)c2)c(Cl)cc1C1=C(O)C2(CCCN(CC(=O)Nc3ccccc3)C2)OC1=O` (centres unmarked) [Example 126], the IC50 is ≤ 100 nM.

With `Cc1cc(-c2cccc(S(C)(=O)=O)c2)c(Cl)cc1C1=C(O)C2(CCCN(C(=O)CCCS(N)(=O)=O)C2)OC1=O` (centres unmarked) [Example 113], the IC50 was ≤ 100 nM.

Take `Cc1cc(-c2cccc(S(C)(=O)=O)c2)c(Cl)cc1C1=C(O)C2(CCCN(S(=O)(=O)CCCC(F)(F)F)C2)OC1=O` (centres unmarked) [Example 114]: the IC50 was ≤ 100 nM.

Regarding `Cc1cc(-c2cccc(S(C)(=O)=O)c2)c(Cl)cc1C1=C(O)C2(CCC3CCCC3C2)OC1=O` (centres unmarked) [Example 84], the IC50 is ≤ 100 nM.

As for `Cc1cc(-c2cccc(Cl)c2)c(Cl)cc1C1=C(O)C2(CCCCC2)OC1=O` [Example 31], the IC50 was ≤ 100 nM.

For the compound `Cc1ccc(CNC(=O)CN2CCCC3(C2)OC(=O)C(c2cc(Cl)c(-c4cccc(S(C)(=O)=O)c4)cc2C)=C3O)cc1` (centres unmarked) [Example 133], the IC50 is ≤ 100 nM.

In the case of `COc1ccc(CCCC(=O)N2CCC3(CC2)OC(=O)C(c2cc(Cl)c(-c4cccc(S(C)(=O)=O)c4)cc2C)=C3O)cc1` [Example 141], the IC50 is ≤ 100 nM.

In the case of `Cc1cc(-c2cccc(S(C)(=O)=O)c2)c(Cl)cc1C1=C(O)C2(CCCN(CC(=O)NCc3cccs3)C2)OC1=O` (centres unmarked) [Example 170], the IC50 is ≤ 100 nM.

Take `CCCS(=O)(=O)Nc1cccc(-c2cc(C)c(C3=C(O)C4(CCCCC4)OC3=O)cc2Cl)c1` [Example 177]: the IC50 was ≤ 100 nM.

With `Cc1cc(-c2cccc(S(C)(=O)=O)c2)c(Cl)cc1C1=C(O)C2(CCN(C(=O)CCCC(C)C)CC2)OC1=O` [Example 139], the IC50 is ≤ 100 nM.

On to `CCOC1CCCCC12OC(=O)C(c1cc(C)c(-c3ccc(Cl)cc3)cc1C)=C2O` (centres unmarked) [Example 14], for which the 50% inhibitory concentration (IC50) is ≤ 100 nM.

Take `COc1ccc(-c2cc(C)c(C3=C(O)C4(CCCCC4)OC3=O)cc2Cl)cc1` [Example 23]: the concentration for half-maximal inhibition (IC50) was ≤ 100 nM.

For the compound `Cc1cc(-c2ccc(F)c([N+](=O)[O-])c2)c(Cl)cc1C1=C(O)C2(CCCCC2)OC1=O` [Example 48], the IC50 was ≤ 100 nM.

Take `Cc1cc(-c2cccc(NS(C)(=O)=O)c2)c(Cl)cc1C1=C(O)C2(CCC3CCCC3C2)OC1=O` (centres unmarked) [Example 189]: the IC50 was ≤ 100 nM.

In the case of `CCOC1CCCCC12OC(=O)C(c1cc(Cl)c(-c3cccc(S(C)(=O)=O)c3)cc1C)=C2O` (single isomer, unassigned) [Example 75], the concentration for half-maximal inhibition (IC50) was ≤ 100 nM.

Consider `Cc1cc(-c2cc(NS(C)(=O)=O)ccc2F)c(Cl)cc1C1=C(O)C2(CCCCC2)OC1=O` [Example 92], for which the IC50 was ≤ 100 nM.

For `Cc1cc(-c2cccc(C(=O)NC3CC3)c2)c(Cl)cc1C1=C(O)C2(CCCCC2)OC1=O` [Example 50], the IC50 is ≤ 100 nM.

Turning to `Cc1cc(-c2cccc([N+](=O)[O-])c2)c(Cl)cc1C1=C(O)C2(CCC3CCCC3C2)OC1=O` (centres unmarked) [Example 88], the IC50 was ≤ 100 nM.

Turning to `Cc1cc(-c2cccc(S(C)(=O)=O)c2)c(Cl)cc1C1=C(O)C2(CCCN(C(=O)N3CCOCC3)C2)OC1=O` (centres unmarked) [Example 106], the IC50 is ≤ 100 nM.

Consider `Cc1cc(-c2cccc(S(C)(=O)=O)c2)c(Cl)cc1C1=C(O)C2(CCN(C(=O)CCc3ccc(S(C)(=O)=O)cc3)CC2)OC1=O` [Example 109], for which the IC50 was ≤ 100 nM.

Take `Cc1cc(-c2cccc(S(C)(=O)=O)c2)c(Cl)cc1C1=C(O)C2(CCN(C(=O)N(C(C)C)C(C)C)CC2)OC1=O` [Example 156]: the IC50 was ≤ 100 nM.

In the case of `Cc1cc(-c2cccc(S(C)(=O)=O)c2)c(Cl)cc1C1=C(O)C2(CCN(C(=O)Cc3ccc(S(=O)(=O)O)cc3)CC2)OC1=O` [Example 143], the IC50 is ≤ 100 nM.

For `Cc1cc(-c2cccc(S(C)(=O)=O)c2)c(Cl)cc1C1=C(O)C2(CCCN(CC(=O)NCc3ccc(Cl)s3)C2)OC1=O` (centres unmarked) [Example 203], the IC50 was ≤ 100 nM.

As to `Cc1cc(-c2ccc([N+](=O)[O-])cc2)c(Cl)cc1C1=C(O)C2(CCCCC2)OC1=O` [Example 47, 3-(2-chloro-5-methyl-4′-nitrobiphenyl-4-yl)-4-hydroxy-1-oxaspiro[4.5]dec-3-en-2-one], the IC50 was ≤ 100 nM.

Take `Cc1cc(-c2cccc(NS(C)(=O)=O)c2)c(Cl)cc1C1=C(O)C2(CCCCCC2)OC1=O` [Example 199]: the IC50 was ≤ 100 nM.

For `Cc1cc(-c2ccccc2)c(Cl)cc1C1=C(O)C2(CCCC2)OC1=O` [Example 201], the concentration for half-maximal inhibition (IC50) is ≤ 100 nM.

As to `Cc1cc(-c2cccc(S(C)(=O)=O)c2)c(Cl)cc1C1=C(O)C2(CCCN(CC(=O)NCc3ccccn3)C2)OC1=O` (centres unmarked) [Example 163], the half-inhibitory concentration (IC50) is ≤ 100 nM.

For the compound `Cc1cc(-c2ccc(C(=O)NCC(=O)O)cc2)c(Cl)cc1C1=C(O)C2(CCCCC2)OC1=O` [Example 52], the IC50 was ≤ 100 nM.

For `Cc1cc(-c2cccc(S(C)(=O)=O)c2)c(Cl)cc1C1=C(O)C2(CCCN(C(=O)CC3CCCC3)C2)OC1=O` (centres unmarked) [Example 136], the IC50 was ≤ 100 nM.

`Cc1cc(-c2ccc(Cl)cc2)ccc1C1=C(O)C2(CCCCC2)OC1=O` [Example 61]: the IC50 is ≤ 100 nM.

Consider `Cc1cc(-c2cccc(S(C)(=O)=O)c2)c(Cl)cc1C1=C(O)C2(CCCCCC2)OC1=O` [Example 198], for which the IC50 is ≤ 100 nM.
